Strand notation (5' to 3'): a small letter for the sugar, then the base; units joined by * are phosphorothioate-linked, units joined directly phosphodiester-linked; [ ] holds rarer units or linkages, { } end groups; capitals alone tell only the bases. e = 2'-O-(2-methoxyethyl) (MOE); [5mC] = 5-methylcytosine; d = 2'-deoxy (DNA)
Key:
[1] = system: human CETP mRNA; test: Antisense inhibition of human CETP mRNA in SW872 liposarcoma cells (Example 1); type: cell-based; settings: 150 nM antisense oligonucleotide, lipofectin, ~24 hours, relative to untreated control cells
Description: Antisense oligonucleotides targeted to a CETP nucleic acid were tested for their effect on CETP mRNA transcript in vitro. Cultured SW872 liposarcoma cells at a density of 50,000 cells per well in a 24-well plate were transfected using lipofectin reagent with 150 nM antisense oligonucleotide. After approximately 24 hours, RNA was isolated from the cells and CETP mRNA levels were measured by quantitative real-time PCR. A human primer probe set (forward sequence […], designated herein as SEQ ID NO: 38; reverse sequence GGCTCACGCCTTTGCTGTT, designated herein as SEQ ID NO: 39; probe sequence […], designated herein as SEQ ID NO: 40) was used to quantitate CETP mRNA. CETP mRNA transcript levels were adjusted according to total RNA content, as measured by the house-keeping gene, GAPDH mRNA levels. GAPDH was measured using a primer probe set with the sequence as set forth in SEQ ID NOs: 10, 11, 13. Results are presented as percent inhibition of CETP, relative to untreated control cells.
The antisense oligonucleotides in Table 3 are 5-10-5 gapmers, where the gap segment comprises ten 2′-deoxynucleosides and each wing segment comprises five 2′-MOE nucleosides. Each nucleotide in the 5′ wing segment and each nucleotide in the 3′ wing segment has a 2′-MOE modification. The internucleoside linkages throughout each gapmer are phosphorothioate (P═S) linkages. All cytosine residues throughout each gapmer are 5-methylcytosines. ‘Target start site’ indicates the 5′-most nucleotide to which the antisense oligonucleotide is targeted. ‘Target stop site’ indicates the 3′-most nucleotide to which the antisense oligonucleotide is targeted. All the antisense oligonucleotides listed in Table 3 target human CETP mRNA, designated herein as SEQ ID NO: 1 (GENBANK Accession No. M30185.1).

[2] = system: human CETP mRNA; test: Antisense inhibition of human CETP mRNA in primary hepatocytes from huCETP transgenic mice (Example 4); type: cell-based, mouse; settings: cytofectin, ~24 hours
Description: Transgenic mice expressing human CETP, controlled by its natural flanking region, increase expression of this gene in response to hypercholesterolemia (Jiang, X. C. et al., J. Clin. Invest. 1992. 90: 1290-1295). These mice were utilized for the following studies. Antisense oligonucleotides targeted to a CETP nucleic acid and described in Example 1 were tested for their effect on CETP mRNA transcript in vitro. Cultured primary hepatocytes from huCETP transgenic mice, at a density of 17,500 cells per well in a 96-well plate, were transfected using cytofectin reagent with 100 nM or 200 nM antisense oligonucleotide. After approximately 24 hours, RNA was isolated from the cells and CETP mRNA levels were measured by quantitative real-time PCR. CETP mRNA transcript levels were adjusted according to total RNA content, as measured by the house-keeping gene, GAPDH mRNA levels. Results are presented in Table 6 as percent inhibition of CETP, relative to untreated control cells.

Row | Substance | % inhibition [1] [%] | Percent inhibition of human CETP mRNA ([2]; 100 nM) [%] | Percent inhibition of human CETP mRNA ([2]; 200 nM) [%]
1 | ISIS 349455: 5-10-5 MOE gapmer CGATGCCTGCCTCGTGCGAG (e[5mC]*eG*eA*eT*eG*d[5mC]*d[5mC]*dT*dG*d[5mC]*d[5mC]*dT*d[5mC]*dG*dT*eG*e[5mC]*eG*eA*eG) | 35 | 25 | 17
2 | ISIS 349462: 5-10-5 MOE gapmer ATCTGGATGTTGTGCAACCC (eA*eT*e[5mC]*eT*eG*dG*dA*dT*dG*dT*dT*dG*dT*dG*d[5mC]*eA*eA*e[5mC]*e[5mC]*e[5mC]) | 76 | 60 | 76
3 | ISIS 349459: 5-10-5 MOE gapmer CTTCTCGCCCGTGATATCTG (e[5mC]*eT*eT*e[5mC]*eT*d[5mC]*dG*d[5mC]*d[5mC]*d[5mC]*dG*dT*dG*dA*dT*eA*eT*e[5mC]*eT*eG) | 79 | 50 | 63
4 | ISIS 349492: 5-10-5 MOE gapmer GGCATCTTGAGGCAGTGGAC (antisense eG*eG*e[5mC]*eA*eT*d[5mC]*dT*dT*dG*dA*dG*dG*d[5mC]*dA*dG*eT*eG*eG*eA*e[5mC]) | 39 | 59 | 58
5 | ISIS 349444: 5-10-5 MOE gapmer TCCTGGCCCCAGAGATTCAC (eT*e[5mC]*e[5mC]*eT*eG*dG*d[5mC]*d[5mC]*d[5mC]*d[5mC]*dA*dG*dA*dG*dA*eT*eT*e[5mC]*eA*e[5mC]) | 20 | 59 | 0
6 | ISIS 349456: 5-10-5 MOE gapmer TCGTGGTTCAACACCAGGAG (eT*e[5mC]*eG*eT*eG*dG*dT*dT*d[5mC]*dA*dA*d[5mC]*dA*d[5mC]*d[5mC]*eA*eG*eG*eA*eG) | 68 | 74 | 51
7 | ISIS 349458: 5-10-5 MOE gapmer GGTAGCTGGCTCGCTGGAAG (eG*eG*eT*eA*eG*d[5mC]*dT*dG*dG*d[5mC]*dT*d[5mC]*dG*d[5mC]*dT*eG*eG*eA*eA*eG) | 18 | 65 | 32
8 | ISIS 349505: 5-10-5 MOE gapmer CACTACCTCGAGCCGAGACA (e[5mC]*eA*e[5mC]*eT*eA*d[5mC]*d[5mC]*dT*d[5mC]*dG*dA*dG*d[5mC]*d[5mC]*dG*eA*eG*eA*e[5mC]*eA) | 55 | 98 | 99
9 | ISIS 349460: 5-10-5 MOE gapmer GCATCATGGCCTTCTCGCCC (eG*e[5mC]*eA*eT*e[5mC]*dA*dT*dG*dG*d[5mC]*d[5mC]*dT*dT*d[5mC]*dT*e[5mC]*eG*e[5mC]*e[5mC]*e[5mC]) | 80 | 67 | 76
10 | ISIS 349454: 5-10-5 MOE gapmer GTGCCTTTGGAGCAGGCATG (eG*eT*eG*e[5mC]*e[5mC]*dT*dT*dT*dG*dG*dA*dG*d[5mC]*dA*dG*eG*e[5mC]*eA*eT*eG) | 46 | 69 | 68
11 | ISIS 349504: 5-10-5 MOE gapmer TGACCTCAGGGATGCCCACA (eT*eG*eA*e[5mC]*e[5mC]*dT*d[5mC]*dA*dG*dG*dG*dA*dT*dG*d[5mC]*e[5mC]*e[5mC]*eA*e[5mC]*eA) | 45 | 78 | 92
12 | ISIS 349449: 5-10-5 MOE gapmer CGAGCCGTTCAGCCTGGAGC (e[5mC]*eG*eA*eG*e[5mC]*d[5mC]*dG*dT*dT*d[5mC]*dA*dG*d[5mC]*d[5mC]*dT*eG*eG*eA*eG*e[5mC]) | 28 | 68 | 63
13 | ISIS 349500: 5-10-5 MOE gapmer ACAGTCTTTGGTGTAATCTG (eA*e[5mC]*eA*eG*eT*d[5mC]*dT*dT*dT*dG*dG*dT*dG*dT*dA*eA*eT*e[5mC]*eT*eG) | 72 | 41 | 77
14 | ISIS 349478: 5-10-5 MOE gapmer ATGATGTTAGAGATGACGTT (eA*eT*eG*eA*eT*dG*dT*dT*dA*dG*dA*dG*dA*dT*dG*eA*e[5mC]*eG*eT*eT) | 48 | 6 | 33
15 | ISIS 349516: 5-10-5 MOE gapmer CATCTCCGTACTCCTAACCC (e[5mC]*eA*eT*e[5mC]*eT*d[5mC]*d[5mC]*dG*dT*dA*d[5mC]*dT*d[5mC]*d[5mC]*dT*eA*eA*e[5mC]*e[5mC]*e[5mC]) | 65 | 78 | 86
16 | ISIS 349472: 5-10-5 MOE gapmer GCACTCTACCAGAGTCACAG (eG*e[5mC]*eA*e[5mC]*eT*d[5mC]*dT*dA*d[5mC]*d[5mC]*dA*dG*dA*dG*dT*e[5mC]*eA*e[5mC]*eA*eG) | 39 | 25 | 45
17 | ISIS 349450: 5-10-5 MOE gapmer GCAGTGGTGTGTAAGTGGCC (eG*e[5mC]*eA*eG*eT*dG*dG*dT*dG*dT*dG*dT*dA*dA*dG*eT*eG*eG*e[5mC]*e[5mC]) | 21 | 89 | 59
18 | ISIS 349491: 5-10-5 MOE gapmer AGCCGCCGACAACCTCTTGG (eA*eG*e[5mC]*e[5mC]*eG*d[5mC]*d[5mC]*dG*dA*d[5mC]*dA*dA*d[5mC]*d[5mC]*dT*e[5mC]*eT*eT*eG*eG) | 45 | 60 | 74
19 | ISIS 349471: 5-10-5 MOE gapmer GTCAGCTGTGTGTTGATCTG (eG*eT*e[5mC]*eA*eG*d[5mC]*dT*dG*dT*dG*dT*dG*dT*dT*dG*eA*eT*e[5mC]*eT*eG) | 32 | 70 | 66
20 | ISIS 349508: 5-10-5 MOE gapmer TCTCGAGTGATAATCTCAGG (eT*e[5mC]*eT*e[5mC]*eG*dA*dG*dT*dG*dA*dT*dA*dA*dT*d[5mC]*eT*e[5mC]*eA*eG*eG) | 24 | 76 | 86
21 | ISIS 349477: 5-10-5 MOE gapmer GATCTCTTTGCAGATCTGTC (eG*eA*eT*e[5mC]*eT*d[5mC]*dT*dT*dT*dG*d[5mC]*dA*dG*dA*dT*e[5mC]*eT*eG*eT*e[5mC]) | 41 | 44 | 47
22 | ISIS 349499: 5-10-5 MOE gapmer CCAAGAGGCTTAAGAAGAGC (e[5mC]*e[5mC]*eA*eA*eG*dA*dG*dG*d[5mC]*dT*dT*dA*dA*dG*dA*eA*eG*eA*eG*e[5mC]) | 55 | 80 | 80
23 | ISIS 349496: 5-10-5 MOE gapmer ACAGAATGTTGCTGGTCTGG (eA*e[5mC]*eA*eG*eA*dA*dT*dG*dT*dT*dG*d[5mC]*dT*dG*dG*eT*e[5mC]*eT*eG*eG) | 69 | 57 | 87
24 | ISIS 349484: 5-10-5 MOE gapmer ACCAGAAGTACAGCATGCGG (eA*e[5mC]*e[5mC]*eA*eG*dA*dA*dG*dT*dA*d[5mC]*dA*dG*d[5mC]*dA*eT*eG*e[5mC]*eG*eG) | 38 | 34 | 52
25 | ISIS 349509: 5-10-5 MOE gapmer CATCTGCAGCAGCAGGAAGC (e[5mC]*eA*eT*e[5mC]*eT*dG*d[5mC]*dA*dG*d[5mC]*dA*dG*d[5mC]*dA*dG*eG*eA*eA*eG*e[5mC]) | 70 | 22 | 83
26 | ISIS 349445: 5-10-5 MOE gapmer CAGCAGGGTCTTCCTGGCCC (e[5mC]*eA*eG*e[5mC]*eA*dG*dG*dG*dT*d[5mC]*dT*dT*d[5mC]*d[5mC]*dT*eG*eG*e[5mC]*e[5mC]*e[5mC]) | 6 | 74 | 71
